Key:
[1] = target: T1, recombinant human FLAP protein (Homo sapiens, UniProt P20292); experiment: FLAP binding assay (Scintillation Proximity Assay, displacement of [125I]L-691,831); conditions: read-out: Human FLAP SPA Binding (IC50 nM)
T1 construct: made in house; host or cells: Sf9 insect cells (membrane fraction, 100,000 x g pellet)
T1 sequence (P20292 1-161): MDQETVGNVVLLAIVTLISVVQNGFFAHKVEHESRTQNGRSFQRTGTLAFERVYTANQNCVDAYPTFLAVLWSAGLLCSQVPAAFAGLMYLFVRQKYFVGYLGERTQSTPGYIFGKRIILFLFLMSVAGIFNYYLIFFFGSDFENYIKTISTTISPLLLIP
How it was run: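 Scintillation proximity displacement format: 0.08 nM iodinated MK-591 analog [125I]L-691,831 competes with test compound for human FLAP in sf9 insect-cell membranes (5 μg/well, WGA beads), 2 h with shaking, pH 7.5 Tris buffer. 10 μM cold L-691,831 defines non-specific binding.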

[2] = system: synthesis of LTB4 in human whole blood; experiment: Human whole blood assay (calcimycin-stimulated LTB4 synthesis); assay type: cell-based; conditions: Homo sapiens; read-out: Human Whole Blood LTB4 Assay for FLAP (IC50 nM)
How it was run: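 LTB4 levels in plasma were measured by antibody-based HTRF after heparinized human whole blood, pretreated with compound (15 min, 37° C), was challenged with 20 μM calcimycin for 30 min at 37° C.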

SMILES	IC50 [1] [nM]	IC50 [2] [nM]
Nc1ncc(-c2ccc(C3(c4cccn4S(=O)(=O)c4ccccc4)CCC3)cc2)cn1 [Example 169, 5-(4-{1-[1-(phenylsulfonyl)-1H-pyrrol-2-yl]cyclobutyl}phenyl)pyrimidin-2-amine]	110	2000
CN(C)C(=O)Cn1cc(-c2cnc(C(C)(c3ccc(-c4cnc(N)nc4)cc3)C3CC3)s2)cn1 (centres unmarked) [Example 170, 2-[4-[2-[1-[4-(2-aminopyrimidin-5-yl)phenyl]-1-cyclopropyl-ethyl]thiazol-5-yl]pyrazol-1-yl]-N,N-dimethyl-acetamide]	10	120
Cn1cc(-c2coc(C(C)(c3ccc(-c4cnc(N)nc4)cc3)C3CC3)n2)cn1 (centres unmarked) [Example 171, 5-(4-{1-cyclopropyl-1-[4-(1-methyl-1H-pyrazol-4-yl)-1,3-oxazol-2-yl]ethyl}phenyl)pyrimidin-2-amine]	7.4	140
CN(C)CCn1cc(-c2cnc(C(C)(c3ccc(-c4cnc(N)nc4)cc3)C3CC3)s2)cn1 (centres unmarked) [Example 172, 5-{4-[1-cyclopropyl-1-(5-{1-[2-(dimethylamino)ethyl]-1H-pyrazol-4-yl}-1,3-thiazol-2-yl)ethyl]phenyl}pyrimidin-2-amine]	8.2	73
Cn1cc(-c2cnc(C(C)(c3ccc(-c4cnc(N)nc4)cc3)C3CC3)s2)cn1 (centres unmarked) [Example 173, 5-(4-{1-cyclopropyl-1-[5-(1-methyl-1H-pyrazol-4-yl)-1,3-thiazol-2-yl]ethyl}phenyl)pyrimidin-2-amine]	7.7	89
COC(=O)c1[nH]cc(Br)c1C1(c2ccc(-c3cnc(N)nc3)cc2)CCC1 [Example 174, methyl 3-{1-[4-(2-aminopyrimidin-5-yl)phenyl]cyclobutyl}-4-bromo-1H-pyrrole-2-carboxylate]	17	650
CC(c1ccc(-c2cnc(N)nc2)cc1)(c1cc(O)n(-c2ccccc2)n1)C1CC1 (centres unmarked) [Example 175, 3-{1-[4-(2-aminopyrimidin-5-yl)phenyl]-1-cyclopropylethyl}-1-phenyl-1H-pyrazol-5-ol]	10	1100
COC(=O)c1cc(-c2cnn(C)c2)c(C2(c3ccc(-c4cnc(N)nc4)cc3)CCC2)[nH]1 [Example 176, methyl 5-{1-[4-(2-aminopyrimidin-5-yl)phenyl]cyclobutyl}-4-(1-methyl-1H-pyrazol-4-yl)-1H-pyrrole-2-carboxylate]	150	2900
COC(=O)c1cc(Br)c(C2(c3ccc(-c4cnc(N)nc4)cc3)CCC2)n1C [Example 177, methyl 5-{1-[4-(2-aminopyrimidin-5-yl)phenyl]cyclobutyl}-4-bromo-1-methyl-1H-pyrrole-2-carboxylate]	42	1800
Nc1ncc(-c2ccc(C3(c4ncc(-c5cn[nH]c5)s4)CCC3)cc2)cn1 [Example 178, 5-(4-{1-[5-(1H-pyrazol-4-yl)-1,3-thiazol-2-yl]cyclobutyl}phenyl)pyrimidin-2-amine]	2.9	81
COC(=O)c1cc(-c2ccc(F)nc2)c(C2(c3ccc(-c4cnc(N)nc4)cc3)CCC2)[nH]1 [Example 179, methyl 5-{1-[4-(2-aminopyrimidin-5-yl)phenyl]cyclobutyl}-4-(6-fluoropyridin-3-yl)-1H-pyrrole-2-carboxylate]	200	4400
CN(C)C(=O)Cn1cc(-c2cnc(C3(c4ccc(-c5cnc(N)nc5)cc4)CCC3)s2)cn1 [Example 180, 2-[4-(2-{1-[4-(2-aminopyrimidin-5-yl)phenyl]cyclobutyl}-1,3-thiazol-5-yl)-1H-pyrazol-1-yl]-N,N-dimethylacetamide]	8.9	270
CN(C)CCn1cc(-c2cnc(C3(c4ccc(-c5cnc(N)nc5)cc4)CCC3)s2)cn1 [Example 181, 5-{4-[1-(5-{1-[2-(dimethylamino)ethyl]-1H-pyrazol-4-yl}-1,3-thiazol-2-yl)cyclobutyl]phenyl}pyrimidin-2-amine]	6.1	110

— US9174980B2, “Heterocyclic compounds as inhibitors of leukotriene production” (Boehringer Ingelheim International GmbH, priority 2012, dated 2015)
